Patent US20250312326A1, “PHARMACEUTICAL COMPOSITION OF ANTIPLATELET DRUG, AND USE THEREOF” (SHANGHAI CUREGENE PHARMACEUTICAL CO., LTD., priority 2022, published 2025)
One block for each compound: values may come before it.

Experiments:
[1] = Pharmacokinetic in rats: thiol active metabolite in plasma; type: in vivo, Male Sprague-Dawley rats; conditions: rat plasma, oral, 10 mg/kg
Description: Male Sprague-Dawley rats were used to conduct pharmacokinetic experiment.
Test compounds (clopidogrel and exemplary compounds provided herein) was administrated orally or intravenously to rat under fast condition. Blood samples were collected via jugular vein at 5 min, 15 min, 30 min, 60 min and 120 min time points with EDTA-K2 (anticoagulant), 3′-methoxyphenacyl bromide (MPBr, derivatization reagent) and phenylmethylsulfonyl fluoride (PMSF, stabilizer). Plasma samples were then harvested by centrifuging at 1500 g for 10 min under 2˜8° C. and stored at −80° C. after separation. Plasma samples were loaded to a LC-MS/MS instrument after extraction to determine the concentration of the thiol active metabolite.

[2] = system: platelet aggregation; assay: Antiaggregatory action in rats (ex vivo ADP-induced platelet aggregation); set-up: species or system Male Sprague-Dawley rats; conditions: rat, oral
Description: Male Sprague-Dawley rats were used for ex vivo platelet aggregation experiments. […] The number of platelets in PRP was measured by hematology analyzer (Siemens, ADVIA2120), and adjusted to 4×10^8/mL with PPP. Platelet aggregation was determined using turbidimetric aggregometry method by an automatic platelet aggregometer ([…]). The aggregometer was primarily warmed up to 37° C., and PRP (290 μL) sample was added to the cuvette and set in the automatic platelet aggregometer. […] Antiaggregatory action of test compounds was expressed as inhibition (%) which determined by the relation: […]

[3] = loading dose 300-600 mg; cited from earlier work
[4] = human body; cited from earlier work

- peak concentration of the thiol active metabolite compared with clopidogrel [1]: significantly higher
SMILES: COC(=O)[C@H](c1ccccc1Cl)N1CCC(SCOC(=O)OC(C)C)/C(=C/C(=O)O)C1 (stereo partly shown) [Compound 1a]

- peak concentration of the thiol active metabolite compared with clopidogrel [1]: significantly higher
SMILES: COC(=O)[C@H](c1ccccc1Cl)N1CCC(SCOC(=O)OC(C)C)/C(=C\C(=O)O)C1 (stereo partly shown) [Compound 1b]
- inhibition at 2 mg/kg ([2]; Platelet, 2 mg/kg, ADP 10 μM, read-out: maximum inhibition of platelet aggregation): ~45%
- time to maximum inhibition of platelet aggregation ([2]; 2 mg/kg): 60 min

- peak concentration of the thiol active metabolite compared with clopidogrel [1]: significantly higher
SMILES: CCOC(=O)/C=C1\CN([C@H](C(=O)OC)c2ccccc2Cl)CCC1SCOC(=O)OC(C)C (stereo partly shown) [Compound 2a]

SMILES: COC(=O)[C@H](c1ccccc1Cl)N1CCc2sccc2C1 [clopidogrel, Clopidogrel]
- onset of therapeutic effect after loading dose administration [3]: 2 h
- inhibition at 10 mg/kg ([2]; Platelet, 10 mg/kg, ADP 10 μM, read-out: maximum inhibition of platelet aggregation): ~45%
- time to maximum inhibition of platelet aggregation ([2]; 10 mg/kg): about 120 minutes
- fraction producing inactive metabolites through non-oxidative hydrolysis [4]: about 85%
- fraction undergoing two-step oxidation (cytochrome P450, mainly CYP2C19) to active metabolite H4 [4]: about 15%
